Assay results published in patent US8652823B2, “Strain for butanol production with increased membrane unsaturated trans fatty acids” (Butamax(TM) Advanced Biofuels LLC, priority 2008, dated 2014).

What was measured:
Format in all cases: cell-based, Lactobacillus plantarum
L. plantarum PN0512 [1] = assay: Growth yield of fatty acid fed cultures in the presence of 2-butanol; conditions: for OD600 (growth yield): overnight growth at 30° C., average of biological replicates
Procedure: (§1) Growth medium was semi-synthetic LAB medium, pH7, with bovine serum albumin (BSA) used as a carrier. […] The composition of this medium is as follows:
(§2) All medium ingredients were purchased from Sigma Chemical Company (St. Louis, Mo.) except yeast extract and casamino acids, which were purchased from Beckton, Dickinson and Co (Sparks, Md.). Free fatty acids, added to a final concentration of […] from 1% ethanol stock solutions (stored at −20° C.), were purchased from Sigma Chemical Company (St Louis, Mo.), Isobutanol, 1-butanol, 2-butanol, and methyl ethyl ketone (MEK) were purchased from Sigma Chemical Company (St. Louis, Mo.).
(§3) A working stock of Lactobacillus plantarum PN0512 (ATCC # PTA-7727) was prepared to use as a consistent source of inoculum. Cultures were grown in MRS medium (Acumedia Manufacturers, Inc. Lansing, Mich.) at 30° C. overnight. Glycerol was added to a final concentration of 12.5% and aliquots were frozen at −80° C. One aliquot was thawed at room temperature and used to inoculate all tubes in an experiment and then discarded.
(§4) For growth yield experiments, 5 ml of medium with fatty acids and several concentrations of 1-butanol, isobutanol, 2-butanol, or MEK in 15 ml screw cap tubes was inoculated with 12.5 μl of the working stock giving an initial OD600 of 0.012. The caps were tightly sealed and incubated at 30° C. on a roller drum for 20 to 26 hours, at which time 1.0 ml was removed and OD600 was measured with a blank of medium amended with the fatty acid. All solvent concentrations are reported as % (w/v).
(§5) Cultures were prepared as described in General Methods.

L. plantarum PN0512 [2] = assay: Growth yield of fatty acid fed cultures in the presence of MEK; conditions: for OD600 (growth yield): overnight growth at 30° C., average of biological replicates
Procedure: as §1, §2, §3, §4, §5

L. plantarum PN0512 [3] = assay: Growth yield of fatty acid fed cultures in the presence of 1-butanol; conditions: for OD600 (growth yield): overnight growth at 30° C., average of biological replicates
Procedure: as §1, §2, §3, §4, §5

L. plantarum PN0512 [4] = assay: Growth yield of fatty acid fed cultures in the presence of isobutanol; conditions: for OD600 (growth yield): 20 hours at 30° C., average of two experiments
Procedure: as §1, §2, §3, §4
Growth in the presence of these fatty acids and various concentrations of isobutanol was tested. Cultures were prepared as described in General Methods.

CCCCCCCC/C=C/CCCCCCCC(=O)O [elaidic acid, (E)-octadec-9-enoic acid]
tolerance to 2-butanol when compared to the oleic acid fed culture (L. plantarum PN0512 [1]): improved tolerance
OD600 (growth yield) (L. plantarum PN0512 [1]; 2-butanol 0 % w/v): 1.490
OD600 (growth yield) (L. plantarum PN0512 [1]; 2-butanol 2.0 % w/v): 1.430
OD600 (growth yield) (L. plantarum PN0512 [1]; 2-butanol 4.0 % w/v): 1.030
OD600 (growth yield) (L. plantarum PN0512 [1]; 2-butanol 4.5 % w/v): 0.400
OD600 (growth yield) (L. plantarum PN0512 [1]; 2-butanol 4.7 % w/v): 0.186
OD600 (growth yield) (L. plantarum PN0512 [1]; 2-butanol 4.9 % w/v): 0.088
OD600 (growth yield) (L. plantarum PN0512 [1]; 2-butanol 5.1 % w/v): 0.038
OD600 (growth yield) (L. plantarum PN0512 [1]; 2-butanol 5.3 % w/v): 0.030
OD600 (growth yield) (L. plantarum PN0512 [1]; 2-butanol 5.5 % w/v): 0.008
growth yield higher than in the oleic acid fed cultures (L. plantarum PN0512 [1]; 4.5% w/v 2-butanol): 4 fold
tolerance to MEK as compared with oleic acid fed cultures (L. plantarum PN0512 [2]): did not have improved tolerance to MEK
OD600 (growth yield) (L. plantarum PN0512 [2]; MEK 0 % (w/v)): 1.548
OD600 (growth yield) (L. plantarum PN0512 [2]; MEK 3.5 % (w/v)): 1.0041
OD600 (growth yield) (L. plantarum PN0512 [2]; MEK 4.0 % (w/v)): 0.9105
OD600 (growth yield) (L. plantarum PN0512 [2]; MEK 4.5 % (w/v)): 0.8871
OD600 (growth yield) (L. plantarum PN0512 [2]; MEK 5.0 % (w/v)): 0.3235
OD600 (growth yield) (L. plantarum PN0512 [2]; MEK 5.5 % (w/v)): 0.1477
OD600 (growth yield) (L. plantarum PN0512 [3]; 1-butanol 0 % (w/v)): 1.508
OD600 (growth yield) (L. plantarum PN0512 [3]; 1-butanol 2.0 % (w/v)): 1.039
OD600 (growth yield) (L. plantarum PN0512 [3]; 1-butanol 2.25 % (w/v)): 1.003
OD600 (growth yield) (L. plantarum PN0512 [3]; 1-butanol 2.5 % (w/v)): 0.559
OD600 (growth yield) (L. plantarum PN0512 [3]; 1-butanol 2.75 % (w/v)): 0.095
OD600 (growth yield) (L. plantarum PN0512 [3]; 1-butanol 3.0 % (w/v)): 0.009
growth yield higher than in the oleic acid fed cultures (L. plantarum PN0512 [3]; 2.5% w/v 1-butanol): greater than 3 fold
growth yield compared with the oleic acid fed cultures (L. plantarum PN0512 [3]; concentrations greater than 2% 1-butanol): greater
growth yield higher than in the oleic acid fed cultures (L. plantarum PN0512 [4]; 2.5% w/v isobutanol): 78%
growth yield compared with the oleic acid fed cultures (L. plantarum PN0512 [4]; concentrations greater than 2% isobutanol): greater
OD600 (growth yield) (L. plantarum PN0512 [4]; isobutanol 1.5 % w/v): 1.145
OD600 (growth yield) (L. plantarum PN0512 [4]; isobutanol 2.0 % w/v): 1.100
OD600 (growth yield) (L. plantarum PN0512 [4]; isobutanol 2.5 % w/v): 0.922
OD600 (growth yield) (L. plantarum PN0512 [4]; isobutanol 2.7 % w/v): 0.606
OD600 (growth yield) (L. plantarum PN0512 [4]; isobutanol 2.9 % w/v): 0.281
OD600 (growth yield) (L. plantarum PN0512 [4]; isobutanol 3.1 % w/v): 0.122
OD600 (growth yield) (L. plantarum PN0512 [4]; isobutanol 3.3 % w/v): 0.072
OD600 (growth yield) (L. plantarum PN0512 [4]; isobutanol 3.5 % w/v): 0.042

CCCCCCCC/C=C\CCCCCCCC(=O)O [oleic acid, reference compound]
OD600 (growth yield) (L. plantarum PN0512 [1]; 2-butanol 0 % w/v): 1.480
OD600 (growth yield) (L. plantarum PN0512 [1]; 2-butanol 2.0 % w/v): 1.410
OD600 (growth yield) (L. plantarum PN0512 [1]; 2-butanol 3.0 % w/v): 1.130
OD600 (growth yield) (L. plantarum PN0512 [1]; 2-butanol 4.0 % w/v): 0.431
OD600 (growth yield) (L. plantarum PN0512 [1]; 2-butanol 4.5 % w/v): 0.100
OD600 (growth yield) (L. plantarum PN0512 [1]; 2-butanol 4.7 % w/v): 0.067
OD600 (growth yield) (L. plantarum PN0512 [1]; 2-butanol 4.9 % w/v): 0.040
OD600 (growth yield) (L. plantarum PN0512 [1]; 2-butanol 5.1 % w/v): 0.030
OD600 (growth yield) (L. plantarum PN0512 [1]; 2-butanol 5.3 % w/v): 0.004
OD600 (growth yield) (L. plantarum PN0512 [1]; 2-butanol 5.5 % w/v): 0.004
OD600 (growth yield) (L. plantarum PN0512 [2]; MEK 0 % (w/v)): 1.539
OD600 (growth yield) (L. plantarum PN0512 [2]; MEK 3.5 % (w/v)): 1.002
OD600 (growth yield) (L. plantarum PN0512 [2]; MEK 4.0 % (w/v)): 0.9446
OD600 (growth yield) (L. plantarum PN0512 [2]; MEK 4.5 % (w/v)): 0.942
OD600 (growth yield) (L. plantarum PN0512 [2]; MEK 5.0 % (w/v)): 0.6828
OD600 (growth yield) (L. plantarum PN0512 [2]; MEK 5.5 % (w/v)): 0.5004
OD600 (growth yield) (L. plantarum PN0512 [3]; 1-butanol 0 % (w/v)): 1.509
OD600 (growth yield) (L. plantarum PN0512 [3]; 1-butanol 2.0 % (w/v)): 1.026
OD600 (growth yield) (L. plantarum PN0512 [3]; 1-butanol 2.25 % (w/v)): 0.611
OD600 (growth yield) (L. plantarum PN0512 [3]; 1-butanol 2.5 % (w/v)): 0.161
OD600 (growth yield) (L. plantarum PN0512 [3]; 1-butanol 2.75 % (w/v)): 0.061
OD600 (growth yield) (L. plantarum PN0512 [3]; 1-butanol 3.0 % (w/v)): 0.003
OD600 (growth yield) (L. plantarum PN0512 [4]; isobutanol 1.5 % w/v): 1.110
OD600 (growth yield) (L. plantarum PN0512 [4]; isobutanol 2.0 % w/v): 1.130
OD600 (growth yield) (L. plantarum PN0512 [4]; isobutanol 2.5 % w/v): 0.519
OD600 (growth yield) (L. plantarum PN0512 [4]; isobutanol 2.7 % w/v): 0.387
OD600 (growth yield) (L. plantarum PN0512 [4]; isobutanol 2.9 % w/v): 0.095
OD600 (growth yield) (L. plantarum PN0512 [4]; isobutanol 3.1 % w/v): 0.063
OD600 (growth yield) (L. plantarum PN0512 [4]; isobutanol 3.3 % w/v): 0.035
OD600 (growth yield) (L. plantarum PN0512 [4]; isobutanol 3.5 % w/v): 0.015
